Results from patent US6215002A, “Pyrrolopyrrolone derivatives as inhibitors of neutrophil elastase” (priority 1996, dated 2001).
pIC50: −log10 of the molar value. Where a name gives a salt, the structure may show the parent alone.

What follows are molecules tested against T1, human neutrophil elastase (Homo sapiens, UniProt P08246) (assay: In vitro assay of human neutrophil elastase (HNE)). Conditions: 118 nM purified human neutrophil elastase, pH 8.6, 15 min incubation at 30° C., MeO-succinyl-alanyl-alanyl-prolyl-valyl-p-nitroanilide substrate; read-out: HNE IC50.
T1 sequence (P08246 30-267): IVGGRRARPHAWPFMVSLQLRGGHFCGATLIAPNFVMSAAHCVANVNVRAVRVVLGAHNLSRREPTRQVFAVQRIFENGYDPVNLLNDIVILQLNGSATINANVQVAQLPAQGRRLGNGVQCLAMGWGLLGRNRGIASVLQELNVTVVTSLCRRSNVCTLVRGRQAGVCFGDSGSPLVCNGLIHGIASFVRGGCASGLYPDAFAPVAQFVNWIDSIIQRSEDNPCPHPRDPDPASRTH
Assay type: biochemical
Procedure: In Vitro Assays of Human Neutrophil Elastase
118 nM purified human neutrophil elastase
Suitable concentrations of compound under test diluted with water from a 10 mM stock solution in dimethylsulphoxide. Values above are final concentrations after the addition of substrate solution (see below).
The mixture above is incubated for fifteen minutes at 30° C. at which time the remaining elastase activity is measured for 10 minutes in a BioTek 340i plate-reader, after the addition of 0.6 mM MeO-succinyl-alanyl-alanyl-prolyl-valyl-p-nitroanilide. The rate of increase in absorbance at 405 nm is proportional to elastase activity. Enzyme activity is plotted against concentration of inhibitor and an IC50 determined using curve fitting software.
1. The compounds were tested in the in vitro elastase test described earlier in the description.
Work on `CCC[C@H]1C(=O)N(S(C)(=O)=O)[C@H]2CCN(C(=O)c3ccco3)[C@H]12` (relative stereo) [Example 231, rel-(3R,3aR,6aS)-4-(Furan-2-carbonyl)-1-methanesulfonyl-3-propyl-hexahydro-pyrrolo[3,2-b]pyrrol-2-one] yielded a pIC50 of 7.46. `C=CC[C@H]1C(=O)N(S(=O)(=O)CCc2ccccc2)[C@H]2CCN(C(=O)OCc3ccccc3)[C@H]12` (relative stereo) [Example 43, rel-(3aS,6R,6aR)-6-Allyl-5-oxo-4-(2-phenyl-ethanesulfonyl)-hexahydro-pyrrolo[3,2-b]pyrrole-1-carboxylic acid benzyl ester] showed a pIC50 of 6.39. Work on `CCC[C@H]1C(=O)N(S(=O)(=O)c2cccs2)[C@H]2CCN(C(=O)CCCCCN3CCCCC3)[C@H]12` (relative stereo) [Example 169, rel-(3R,3aR,6aS)-4-(6-Piperidin-1-yl-hexanoyl)-3-propyl-1-(thiophene-2-sulfonyl)-hexahydro-pyrrolo[3,2-b]pyrrol-2-one DL-tartrate] yielded a pIC50 of 7.54. `CCC[C@H]1C(=O)N(S(=O)(=O)c2cccnc2)[C@H]2CCN(C(=O)CCN3CCCCC3)[C@H]12` (relative stereo) [Example 172, rel-(3R,3aR,6aS)-4-(3-Piperidin-1-yl-propionyl)-3-propyl-1-(pyridine-3-sulfonyl)-hexahydro-pyrrolo[3,2-b]pyrrol-2-one dihydrochloride] gave a pIC50 of 7.16. `CC[C@H]1C(=O)N(S(=O)(=O)c2ccc3ccccc3c2)[C@H]2CCN(S(=O)(=O)CCCN3CCOCC3)[C@H]12` (relative stereo) [Example 35, rel-(3R,3aR,6aS)-3-Ethyl-4-(3-morpholin-4-yl)-propane-1-sulfonyl)-1-(naphthalene-2-sulfonyl)-hexahydro-pyrrolo[3,2-b]pyrrol-2-one meso-tartrate] showed a pIC50 of 6.16. Molecule `CCC[C@H]1C(=O)N(S(C)(=O)=O)[C@H]2CCN(S(=O)(=O)c3ccccc3[N+](=O)[O-])[C@H]12` (relative stereo) [Example 226, rel-(3R,3aR,6aS)-1-Methanesulfonyl-4-(2-nitro-benzenesulfonyl)-3-propyl-hexahydro-pyrrolo[3,2-b]pyrrol-2-one] has a pIC50 of 7.06. For `CCC[C@H]1C(=O)N(S(C)(=O)=O)[C@H]2CCN(C(=O)CCN(CC)CC)[C@H]12` (relative stereo) [Example 91, rel-(3R,3aR,6aS)-4-(3-Diethylamino-propionyl)-1-methanesulfonyl-3-propyl-hexahydro-pyrrolo-3,2-b]pyrrol-2-one hydrochloride], the pIC50 was 7.19. In the case of `CCC[C@H]1C(=O)N(S(=O)(=O)c2ccc3ccccc3c2)[C@H]2CCN(C(=O)CCCN(C)C)[C@H]12` (relative stereo) [Example 25, rel-(3R,3aR,6aS)-4-(4-Dimethylamino-butyryl)-1-(naphthalene-2-sulfonyl)-3-propyl-hexahydro-pyrrolo[3,2-b]-pyrrol-2-one], the pIC50 was 7.23. In the case of `CCC[C@H]1C(=O)N(S(C)(=O)=O)[C@H]2CCN(S(=O)(=O)c3ccc(N)cc3)[C@H]12` (relative stereo) [Example 234, rel-(3R,3aR,6aS)-4-(4-Amino-benzenesulfonyl)-1-methanesulfonyl-3-propyl-hexahydro-pyrrolo[3,2-b]pyrrol-2-one], the pIC50 was 7.96. `CCC[C@H]1C(=O)N(S(C)(=O)=O)[C@H]2CCN(C(=O)c3cccn3C)[C@H]12` (relative stereo) [Example 240, rel-(3R,3aR,6aS)-1-Methanesulfonyl-4-(1-methyl-1H-pyrrole-2-carbonyl)-3-propyl-hexahydro-pyrrolo[3,2-b]pyrrol-2-one] gave a pIC50 of 7.48. For `CC(C)[C@H]1C(=O)N(S(C)(=O)=O)[C@H]2CCN(C(=O)CCCC3CCNCC3)[C@H]12` (relative stereo) [Example 255, rel-(3R,3aR,6aS)-3-Isopropyl-1-methanesulfonyl-4-(4-piperidin-4-yl-butyryl)-hexahydro-pyrrolo[3,2-b]pyrrol-2-one hydrochloride], the pIC50 was 6.84. With `CCC[C@H]1C(=O)N(S(C)(=O)=O)[C@H]2CCN(C(=O)CCCCCN3CCCC3)[C@H]12` (relative stereo) [Example 73, rel-(3R,3aR,6aS)-1-Methanesulfonyl-3-propyl-4-(6-pyrrolidin-1-yl-hexanoyl)-hexahydro-pyrrolo[3,2-b]pyrrol-2-one hydrochloride] the pIC50 was 7.13. For `CCC[C@H]1C(=O)N(S(=O)(=O)c2ccc3ccccc3c2)[C@H]2CCN(S(=O)(=O)Cc3ccccc3)[C@H]12` (relative stereo) [Example 34, rel-(3aR,6R,6aS)-1-(Naphthalene-2-sulfonyl)-4-phenylmethanesulfonyl-3-propyl-hexahydro-pyrrolo[3,2-b]pyrrol-2-one], the pIC50 was 7.28. `CCC[C@H]1C(=O)N(S(=O)(=O)c2ccccn2)[C@H]2CCN(C(=O)CCN3CCCCC3)[C@H]12` (relative stereo) [Example 171, rel-(3R,3aR,6aS)-4-(3-Piperidin-1-yl-propionyl)-3-propyl-1-(pyridine-2-sulfonyl)-hexahydro-pyrrolo[3,2-b]pyrrol-2-one hydrochloride] gave a pIC50 of 7.41. Molecule `CCC[C@H]1C(=O)N(S(=O)(=O)c2ccc(C#N)cc2)[C@H]2CCN(C(=O)CCCCCN3CCCCC3)[C@H]12` (relative stereo) [Example 205, rel-4-[2-Oxo-4-(6-piperidin-1-yl-hexanoyl)-3R-propyl-hexahydro-(3aR,6aS)-pyrrolo[3,2-b]pyrrole-1-sulfonyl]-benzonitrile DL-tartrate] has a pIC50 of 7.55. For `CCC[C@H]1C(=O)N(S(C)(=O)=O)[C@H]2CCN(S(=O)(=O)c3ccc(OC)cc3)[C@H]12` (relative stereo) [Example 220, rel-(3R,3aR,6aS)-1-Methanesulfonyl-4-(4-methoxy-benzenesulfonyl)-3-propyl hexahydro-pyrrolo[3,2-b]pyrrol-2-one], the pIC50 was 7.92. For `C=CC[C@H]1C(=O)N(S(=O)(=O)c2cc3ccccc3s2)[C@@H]2CCN(C(=O)OCc3ccccc3)[C@H]21` (relative stereo) [Example 42, rel-(3aR,6R,6aS)-6-Allyl-4-(benzo[b]thiophene-2-sulfonyl)-5-oxo-hexahydro-pyrrolo[3,2-b]pyrrole-1-carboxylic acid benzyl ester], the pIC50 was 7.11. `C=CC[C@H]1C(=O)N(S(C)(=O)=O)[C@H]2CCN(C(=O)OCc3ccccc3)[C@H]12` (relative stereo) [Example 6, rel-(3aS,6R,6aR)-6-Allyl-4-methanesulfonyl-5-oxo-hexahydro-pyrrolo[3,2-b]pyrrole-1-carboxylic acid benzyl ester] was tested, and the pIC50 was 7.15. `CCC[C@H]1C(=O)N(S(C)(=O)=O)[C@H]2CCN(C(=O)CCCCCN3CCCN(C)CC3)[C@H]12` (relative stereo) [Example 80, rel-(3R,3aR,6aS)-1-Methanesulfonyl-4-[6-(4-methyl-[1,4]diazepin-1-yl)-hexanoyl]-3-propyl-hexahydro-pyrrolo[3,2-b]pyrrol-2-one hydrochloride] showed a pIC50 of 7.21. `CCCCOc1ccc(C(=O)N2CC[C@H]3[C@H]2[C@@H](CCC)C(=O)N3S(C)(=O)=O)cc1` (relative stereo) [Example 239, rel-(3R,3aR,6aS)-4-(4-Butoxy-benzoyl)-1-methanesulfonyl-3-propyl-hexahydro-pyrrolo[3,2-b]pyrrol-2-one] gave a pIC50 of 7.74. Work on `CCC[C@H]1C(=O)N(S(=O)(=O)CC)[C@H]2CCN(C(=O)CCN3CCCCC3)[C@H]12` (relative stereo) [Example 160, rel-(3R,3aR,6aS)-1-Ethanesulfonyl-4-(3-piperidin-1-yl-propionyl)-3-propyl-hexahydro-pyrrolo[3,2-b]pyrrol-2-one DL-tartrate] yielded a pIC50 of 6.92. Work on `CCC[C@H]1C(=O)N(S(C)(=O)=O)[C@H]2CCN(C(=O)CCN3CCCCC3)[C@H]12` (relative stereo) [Example 30, rel-(3R,3aR,6aS)-1-Methanesulfonyl-4-(3-piperidin-1-yl-propionyl)-3-propyl-hexahydro-pyrrolo[3,2-b]pyrrol-2-one hydrochloride] yielded a pIC50 of 6.72. `CCC[C@H]1C(=O)N(S(C)(=O)=O)[C@H]2CCN(C(=O)/C=C/c3ccc(CN4CCCCC4)cc3)[C@H]12` (relative stereo) [Example 133, rel-(3R,3aR,6aS)-1-Methanesulfonyl-4-[3-(4-piperidin-1-ylmethyl-phenyl)-(E)-acryloyl]-3-propyl-hexahydro-pyrrolo[3,2-b]pyrrol-2-one hydrochloride] showed a pIC50 of 7.21. For `CCC[C@H]1C(=O)N(S(C)(=O)=O)[C@H]2CCN(S(C)(=O)=O)[C@H]12` (relative stereo) [Example 26, rel-(3R,3aR,6aS)-1,4-Bis-methanesulfonyl-3-propyl-hexahydro-pyrrolo[3,2-b]pyrrol-2-one], the pIC50 was 7.70. In the case of `CCC[C@H]1C(=O)N(S(=O)(=O)c2ccc3ccccc3c2)[C@H]2CCN(C(C)=O)[C@H]12` (relative stereo) [Example 24, rel-(3R,3aR,6aS)-4-Acetyl-1-(naphthalene-2-sulfonyl)-3-propyl-hexahydro-pyrrolo[3,2-b][pyrrol-2-one], the pIC50 was 8.05. Molecule `CCC[C@H]1C(=O)N(S(=O)(=O)c2ccc3ccccc3c2)[C@H]2CCN(S(=O)(=O)CCCN3CCN(C)CC3)[C@H]12` (relative stereo) [Example 14, rel-(3R,3aR,6aS)-4-[3-(4-Methyl-piperazin-1-yl)-propane-1-sulfonyl-1-(naphthalene-2-sulfonyl)-3-propyl-hexahydro-pyrrolo[3,2-b]pyrrol-2-one] has a pIC50 of 6.71.
